Reference: patent US12157746B2, “Tetrahydro-1H-pyrazino[2,1-a]isoindolylquinoline compounds for the treatment of autoimmune disease” (F. HOFFMANN-LA ROCHE AG, priority 2018, dated 2024)

molecular target: T1, human TLR9 (Homo sapiens, UniProt Q9NR96); assay: HEK293-Blue-hTLR-9 cells assay; format: cell-based; conditions: HEK293-Blue-hTLR9 cells, ODN2006 stimulation, 20 hrs, SEAP reporter; read-out: HEK/hTLR9 IC50
T1 sequence (Q9NR96 26-1032): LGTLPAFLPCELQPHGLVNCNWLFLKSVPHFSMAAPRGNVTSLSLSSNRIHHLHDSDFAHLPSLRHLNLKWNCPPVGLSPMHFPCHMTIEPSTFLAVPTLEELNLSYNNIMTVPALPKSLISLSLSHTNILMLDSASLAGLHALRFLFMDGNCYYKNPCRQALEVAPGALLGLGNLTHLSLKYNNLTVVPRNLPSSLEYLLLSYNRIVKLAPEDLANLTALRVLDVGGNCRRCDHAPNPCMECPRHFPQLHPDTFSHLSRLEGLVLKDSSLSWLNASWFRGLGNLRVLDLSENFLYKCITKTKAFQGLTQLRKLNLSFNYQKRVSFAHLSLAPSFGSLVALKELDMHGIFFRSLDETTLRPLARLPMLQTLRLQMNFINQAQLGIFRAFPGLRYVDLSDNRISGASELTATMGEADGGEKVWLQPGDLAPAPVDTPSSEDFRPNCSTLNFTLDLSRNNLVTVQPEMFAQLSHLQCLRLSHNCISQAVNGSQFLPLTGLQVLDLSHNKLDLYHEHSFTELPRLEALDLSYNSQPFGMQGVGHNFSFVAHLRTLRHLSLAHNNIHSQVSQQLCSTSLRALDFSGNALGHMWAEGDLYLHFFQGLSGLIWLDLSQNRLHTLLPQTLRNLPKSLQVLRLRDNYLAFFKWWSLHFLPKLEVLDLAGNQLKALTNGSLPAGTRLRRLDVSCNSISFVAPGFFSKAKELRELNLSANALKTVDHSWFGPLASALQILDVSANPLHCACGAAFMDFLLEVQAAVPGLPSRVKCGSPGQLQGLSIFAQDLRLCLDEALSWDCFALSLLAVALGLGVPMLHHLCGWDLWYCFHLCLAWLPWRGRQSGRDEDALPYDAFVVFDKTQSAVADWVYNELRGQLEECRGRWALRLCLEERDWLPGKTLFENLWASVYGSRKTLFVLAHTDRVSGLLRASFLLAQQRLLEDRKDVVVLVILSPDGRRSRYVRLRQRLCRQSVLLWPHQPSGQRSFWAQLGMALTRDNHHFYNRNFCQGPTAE
Excerpt: HEK293-Blue-hTLR-9 Cells Assay:
A stable HEK293-Blue-hTLR-9 cell line was purchased from InvivoGen (Cat. #: hkb-htlr9, San Diego. California USA). These cells were originally designed for studying the stimulation of human TLR9 by monitoring the activation of NF-κB. A SEAP (secreted embryonic alkaline phosphatase) reporter gene was placed under the control of the IFN-β minimal promoter fused to five NF-κB and AP-1-binding sites. The SEAP was induced by activating NF-κB and AP-1 via stimulating HEK-Blue hTLR9 cells with TLR9 ligands. Therefore the reporter expression was declined by TLR9 antagonist under the stimulation of a ligand, such as ODN2006 (Cat. #: tlrl-2006-1, Invivogen, San Diego, California USA), for incubation of 20 hrs. The cell culture supernatant SEAP reporter activity was determined using QUANTI-Blue™ kit (Cat. #: rep-qb1, Invivogen, San Diego, California, USA) at a wavelength of 640 nm, a detection medium that turns purple or blue in the presence of alkaline phosphatase.
HEK293-Blue-hTLR9 cells were incubated at a density of 250.000-450,000 cells/mL in a volume of 170 μL in a 96-well plate in Dulbecco's Modified Eagle's medium (DMEM) containing 4.5 g/L glucose, 50 U/mL penicillin, […], […], 2 mM L-glutamine, 10% (v/v) heat-inactivated fetal bovine serum with addition of 20 μL test compound 1n a serial dilution in the presence of final DMSO at 1% and 10 μL of 20 uM ODN2006 in above DMEM, perform incubation under 37° C. in a CO2 incubator for 20 hrs. Then 20 μL of the supernatant from each well was incubated with 180 μL Quanti-blue substrate solution at 37° C. for 2 h and the absorbance was read at 620˜655 nm using a spectrophotometer. The signaling pathway that TLR9 activation leads to downstream NF-κB activation has been widely accepted, and therefore similar reporter assay was modified for evaluating TLR9 antagonist.

Point of comparison: `C[C@@H]1CN(c2ccc(C#N)c3ncccc23)C[C@@H]2c3ccc(N4CCNC[C@@H]4CO)cc3CN12` [Example 10, 5-[(4R,10bS)-8-[(2R)-2-(hydroxymethyl)piperazin-1-yl]-4-methyl-3,4,6,10b-tetrahydro-1H-pyrazino[2,1-a]isoindol-2-yl]quinoline-8-carbonitrile], IC50 92.5 nM. Against it:
- CO[C@H]1CN(c2ccc3c(c2)CN2[C@H](C)CN(c4ccc(C#N)c5ncccc45)C[C@H]32)C[C@@H]1N (relative stereo) [Example 16, 5-[(4R,10bS)-8-[trans-3-amino-4-methoxy-pyrrolidin-1-yl]-4-methyl-3,4,6,10b-tetrahydro-1H-pyrazino[2,1-a]isoindol-2-yl]quinoline-8-carbonitrile] — within 1.5-fold, 95.2 nM
- CO[C@@H]1CN(c2ccc3c(c2)CN2C3CN(c3ccc(C#N)c4ncccc34)C[C@H]2C)C[C@@H]1N (relative stereo) [Example 17, 5-[(4R,10bS)-8-[cis-3-amino-4-methoxy-pyrrolidin-1-yl]-4-methyl-3,4,6,10b-tetrahydro-1H-pyrazino[2,1-a]isoindol-2-yl]quinoline-8-carbonitrile] — within 1.5-fold, 81 nM
- C[C@@H]1CN(c2ccc(C#N)c3ncccc23)CC2c3ccc(N4C[C@H](N)[C@@H](O)C4)cc3CN21 (relative stereo) [Example 21, 5-[(4R,10bS)-8-[trans-3-amino-4-hydroxy-pyrrolidin-1-yl]-4-methyl-3,4,6,10b-tetrahydro-1H-pyrazino[2,1-a]isoindol-2-yl]quinoline-8-carbonitrile] — 1.6-fold lower, 56.1 nM
- CO[C@H]1CN(c2ccc3c(c2)CN2C3CN(c3ccc(C#N)c4ncccc34)C[C@H]2C)C[C@@H]1N (single isomer, unassigned) [Example 16A] — within 1.5-fold, 113 nM
- COC1CN(c2ccc3c(c2)CN2C3CN(c3ccc(C#N)c4ncccc34)C[C@H]2C)CC1N (single isomer, unassigned) [Example 16B] — within 1.5-fold, 97.5 nM
- C[C@@H]1CN(c2ccc(C#N)c3ncccc23)C[C@@H]2c3ccc(N4C[C@@H](N)[C@H](O)C4)cc3CN12 (single isomer, unassigned) [Example 40B] — within 1.5-fold, 70.8 nM
- N#Cc1ccc(N2CCN3Cc4cc(N5CCNCC5)ccc4C3C2)c2scnc12 (stereo not shown) [Example 4, 7-(8-piperazin-1-yl-3,4,6,10b-tetrahydro-1H-pyrazino[2,1-a]isoindol-2-yl)-1,3-benzothiazole-4-carbonitrile] — within 1.5-fold, 101 nM
- C[C@@H]1CN(c2ccc(C#N)n3nccc23)C[C@@H]2c3ccc(N4CCNCC4)cc3CN12 [Example 5, 4-[(4R,10bS)-4-methyl-8-piperazin-1-yl-3,4,6,10b-tetrahydro-1H-pyrazino[2,1-a]isoindol-2-yl]pyrazolo[1,5-a]pyridine-7-carbonitrile] — within 1.5-fold, 133 nM
- C[C@@H]1CN(c2ccc(C#N)c3ncsc23)C[C@@H]2c3ccc(N4CCNCC4)cc3CN12 [Example 6, 7-[(4R,10bS)-4-methyl-8-piperazin-1-yl-3,4,6,10b-tetrahydro-1H-pyrazino[2,1-a]isoindol-2-yl]-1,3-benzothiazole-4-carbonitrile] — 1.7-fold higher, 156 nM
- C[C@@H]1CN(c2ccc(C#N)c3nccnc23)C[C@@H]2c3ccc(N4CCNCC4)cc3CN12 [Example 7, 8-[(4R,10bS)-4-methyl-8-piperazin-1-yl-3,4,6,10b-tetrahydro-1H-pyrazino[2,1-a]isoindol-2-yl]quinoxaline-5-carbonitrile] — within 1.5-fold, 99.2 nM
- C[C@@H]1CN(c2ccc(C#N)c3ncccc23)C[C@@H]2c3cccc(N4CCNCC4)c3CN12 [Example 8, 5-[(4R,10bS)-4-methyl-7-piperazin-1-yl-3,4,6,10b-tetrahydro-1H-pyrazino[2,1-a]isoindol-2-yl]quinoline-8-carbonitrile] — 1.6-fold higher, 150 nM
- C[C@@H]1CN(c2ccc(C#N)c3ncccc23)C[C@@H]2c3ccc(C4CCNCC4)cc3CN12 [Example 9, 5-[(4R,10bS)-4-methyl-8-(4-piperidyl)-3,4,6,10b-tetrahydro-1H-pyrazino[2,1-a]isoindol-2-yl]quinoline-8-carbonitrile] — within 1.5-fold, 130 nM
- C[C@@H]1CN(c2ccc(C#N)c3ncccc23)C[C@@H]2c3ccc(N4CCNC[C@H]4CO)cc3CN12 [Example 11, 5-[(4R,10S)-8-[(2S)-2-(hydroxymethyl)piperazin-1-yl]-4-methyl-3,4,6,10b-tetrahydro-1H-pyrazino[2,1-a]isoindol-2-yl]quinoline-8-carbonitrile] — within 1.5-fold, 92 nM
- C[C@@H]1CN(c2ccc(C#N)c3ncccc23)C[C@@H]2c3ccc(N4CCN[C@H](CO)C4)cc3CN12 [Example 12, 5-[(4R,10bS)-8-[(3S)-3-(hydroxymethyl)piperazin-1-yl]-4-methyl-3,4,6,10b-tetrahydro-1H-pyrazino[2,1-a]isoindol-2-yl]quinoline-8-carbonitrile] — within 1.5-fold, 71.2 nM
- C[C@@H]1CN(c2ccc(C#N)c3ncccc23)C[C@@H]2c3ccc(N4CC5CNCC(C4)O5)cc3CN12 [Example 14, 5-[(4R,10bS)-4-methyl-8-(9-oxa-3,7-diazabicyclo[3.3.1]nonan-3-yl)-3,4,6,10b-tetrahydro-1H-pyrazino[2,1-a]isoindol-2-yl]quinoline-8-carbonitrile] — within 1.5-fold, 81.1 nM
- C[C@@H]1CN(c2ccc(C#N)c3ncccc23)C[C@@H]2c3ccc(N4CCNCC(O)C4)cc3CN12 (stereo partly drawn) [Example 15, 5-[(4R,10bS)-8-(6-hydroxy-1,4-diazepan-1-yl)-4-methyl-3,4,6,10b-tetrahydro-1H-pyrazino[2,1-a]isoindol-2-yl]quinoline-8-carbonitrile] — within 1.5-fold, 83.2 nM
- C[C@@H]1CN(c2ccc(C#N)c3ncccc23)C[C@@H]2c3ccc(N4CC(N)C5(COC5)C4)cc3CN12 (stereo partly drawn) [Example 18, 5-[(4R,10bS)-8-(5-amino-2-oxa-7-azaspiro[3.4]octan-7-yl)-4-methyl-3,4,6,10b-tetrahydro-1H-pyrazino[2,1-a]isoindol-2-yl]quinoline-8-carbonitrile] — within 1.5-fold, 114 nM
- C[C@@H]1CN(c2ccc(C#N)c3ncccc23)C[C@@H]2c3ccc(N4CCC(N)(CO)C4)cc3CN12 (stereo partly drawn) [Example 19, 5-[(4R,10bS)-8-[3-amino-3-(hydroxymethyl)pyrrolidin-1-yl]-4-methyl-3,4,6,10b-tetrahydro-1H-pyrazino[2,1-a]isoindol-2-yl]quinoline-8-carbonitrile] — within 1.5-fold, 65.3 nM
- C[C@@H]1CN(c2ccc(C#N)c3ncccc23)C[C@@H]2c3ccc(N4CC[C@@H](N)C4)cc3CN12 [Example 20, 5-[(4R,10bS)-8-[(3R)-3-aminopyrrolidin-1-yl]-4-methyl-3,4,6,10b-tetrahydro-1H-pyrazino[2,1-a]isoindol-2-yl]quinoline-8-carbonitrile] — within 1.5-fold, 86.9 nM
- C[C@@H]1CN(c2ccc(C#N)c3ncccc23)C[C@@H]2c3ccc(N4CC(N)C4)cc3CN12 [Example 22, 5-[(4R,10bS)-8-(3-aminoazetidin-1-yl)-4-methyl-3,4,6,10b-tetrahydro-1H-pyrazino[2,1-a]isoindol-2-yl]quinoline-8-carbonitrile] — within 1.5-fold, 104 nM
- CN[C@H]1CN(c2ccc3c(c2)CN2[C@H](C)CN(c4ccc(C#N)c5ncccc45)C[C@H]32)C[C@@H]1OC [Example 23, 5-[(4R,10bS)-8-[(3S,4S)-3-methoxy-4-(methylamino)pyrrolidin-1-yl]-4-methyl-3,4,6,10b-tetrahydro-1H-pyrazino[2,1-a]isoindol-2-yl]quinoline-8-carbonitrile] — within 1.5-fold, 92.4 nM
